Like-named read-outs stand apart in the source and are kept apart here.
What was measured:
[1] = test system: HCV replicon cells Huh 9B (genotype 1b); assay: 1b Replicon Assay (luciferase readout); format: cell-based; conditions: Hepatitis C virus, Huh 9B replicon cells, 72 h, luciferase activity
[2] = test system: HCV replicon cells Huh 9B; format: cell-based; conditions: Huh 9B replicon cells, 72 h, methylene blue, total cell area reduced by 50%
Procedure: HCV replicon cells Huh 9B (ReBlikon), containing the firefly luciferase-ubiquitin-neomycin phosphotransferase fusion protein and EMCV-IRES driven HCV polyprotein with cell culture adaptive mutations.
Replicon cells were trypsinised and counted. Cells were diluted to 100,000 cells/ml and 100 μl used to seed one opaque white 96-well plate (for the replicon assay) and one flat-bottomed clear plate (for the tox assay) for every five compounds to be tested for IC50. Wells G12 and H12 were left empty in the clear plate as the blank. Plates were then incubated at 37° C./5% CO2 for 24 h.
On the following day compound dilutions were prepared in medium at twice their desired final concentration in a clear round bottomed plate. All dilutions have a final DMSO concentration of 1%.
Controls and compounds were transferred from the dilution plates to the assay plates (containing the cells) at 100 μl/well in duplicate wells.
Exception: no compound was added to wells A1 and A2 of either plate and 100 μl of 1% DMSO was added to these instead. Plates were then incubated at 37° C./5% CO2 for 72 h.
The clear plate was stained with 100 μA 0.5% methylene blue in 50% ethanol at room temperature for 1 h, followed by solvation of the absorbed methylene blue in 100 μl per well of 1% lauroylsarcosine. Absorbance of the plate was measured on a microplate spectrophotometer (Molecular Devices) and the absorbance for each concentration of compound expressed as a proportion of the relative DMSO control. The TD50, the is concentration of drug required to reduce the total cell area by 50% relative to the DMSO controls, was calculated by plotting the absorbance at 620 nm after background substraction against drug concentration.

in vitro = in vitro ADME, Canine; conditions: dog, MDCK
Procedure: Cells used: MDCK (Madin-Darby Canine Kidney) cells, ATCC collection # CCL-34, are used to model the intestinal barrier. Cell culture conditions: cells were cultured at 37° C. in a 5% CO2 environment and split twice a week on seeding at 4×10^5 cells/flask (75 cm^2) on day 1 and 2×10^5 cells/flask on day 4. The culture medium consisted of MEM+Earle's-L Glutamine (Gibco #21090-022) supplemented with 10% Australian Fetal Calf Serum (Sigma #F6178), 2 mM L-Glutamine (Gibco #25030-024) and 1× Non Essential Amino Acids (Gibco #11140-035)
On day 1, a 24-well plate (Sarstedt, #83.1836.300) was filled with individual 3 lam pore membrane inserts (Millipore, #PITP 012 50). Each plate allows the testing of a cocktail of 3 control compounds and 11 test compounds in duplicate. The wells (outside the inserts) were filled with 500 μl of culture medium.
A flask of cells was trypsinised and a cell count carried out. Cells were diluted to 1.2×10^5 cells/ml (1×10^5 cells/cm^2) and 500 μl dispensed in each insert on the 24-well plate. The plate was incubated at 37° C. in a 5% CO2 environment for 48 hours.
On day 3, the culture medium was removed from the wells, then the inserts and is replaced with fresh culture medium in the wells, then the inserts (500111 per well and insert) The plate was incubated at 37° C. in a 5% CO2 environment for 24 hours.
On day 4, the controls cocktail and test compounds solutions were made up in HBSS buffer (Hank's Balanced Salt Solution, Gibco #14025-050) at 1011M. The final controls and test compounds concentration in the assay was 10 μM, and DMSO concentration maintained at 0.1% (0.3% for the controls cocktail). The controls cocktail was made up of Atenolol (Sigma # A-7655), Dexamethasone (Sigma #D-1756) and Propranolol (Sigma # P-0884).
A 24-well plate was filled with 500 μl of HBSS buffer per well (assay plate) The culture medium was removed from the wells and inserts. The inserts were washed three times with approximately 500 μl of HBSS buffer. The inserts were transferred to the assay plate. Controls cocktail and test compounds solutions were dispensed inside the inserts (500 μl per insert), in duplicates. The assay plate was incubated at 37° C. in a 5% CO2 environment for 2 hours.
After 2 hours, the inserts were removed from the assay plate and transferred into a new 24-well plate (wash plate) The assay plate containing the receiver solutions was left aside for later sampling. To measure the mass balance, 150 μl were sampled from each insert (donor solutions) and dispensed into 150 μl of HPLC-grade Acetonitrile (Fisher Scientific) containing an internal standard and 0.05% formic acid.
The donor solutions were aspirated and discarded from each insert, and the inserts washed once with approximately 500 μl of HBSS buffer. A 24-well plate was filled with 500 μl of HBSS buffer per well (monolayer integrity plate) A Lucifer Yellow (Sigma #L0144) solution was made up at 1001.1M in HBSS buffer. The empty inserts were transferred into the monolayer integrity plate and filled with 500 μl of the Lucifer Yellow solution to determine the cell monolayers integrity and leftover of the solution was kept in a fridge. The plate was incubated at 37° C. in a 5% CO2 environment for 2 hours.
In the meantime, 150 μl were sampled from the assay plate (receiver solutions) and dispensed into 150 μl of HPLC-grade Acetonitrile containing an internal standard and 0.05% formic acid. A calibration curve was made for each mix of compounds (as appropriate depending on compounds molecular weights) A 10 μM mix of compounds in HBSS buffer was diluted 1:1 in HPLC-grade Acetonitrile containing an internal standard and 0.05% formic acid. A 1:1 mix of HBSS buffer and HPLC-grade Acetonitrile containing an internal standard and 0.05% formic acid was made up and used to make up the calibration curve (2 fold dilutions), with concentrations ranging from 10 μM to 0.078 μM. […]

In the case of `COC(=O)N[C@H](C(=O)N1CCC[C@H]1c1ncc(-c2ccc(-c3ccc(C(=O)Nc4ccc(CN5CCS(=O)(=O)CC5)cc4)cc3)cc2)[nH]1)[C@@H](C)O` [Example 17, Methyl N-[(1S,2R)-1-[(2S)-2-[5-[4-[4-[[4-[(1,1-dioxo-1,4-thiazinan-4-yl)methyl]phenyl]carbamoyl]phenyl]phenyl]-1H-imidazol-2-yl]pyrrolidine-1-carbonyl]-2-hydroxy-propyl]carbamate], the IC50 ([1]; read-out: HCV IC50 1b Replicon) is reported as 0.3 nM, the IC50 ([1]; read-out: pIC50 1b Replicon (converted)) is reported as 0.302 nM and the “HCV TD50 Replicon” value [2] is reported as 18.4 µM. It also gave a Papp at 2 h, 10 µM (in vitro) of 4 nm/s.

Source: US20100215618A1, “NOVEL COMPOUNDS - 644” (Arrow Therapeutics Limited, priority 2009, published 2010)
